Reference: patent US8337914B2, “Dietary food supplement containing natural cyclooxygenase inhibitors and methods for inhibiting pain and inflammation” (Access Business Group International LLC, priority 1999, dated 2012)

Molecular target: T1, COX-2 (Homo sapiens, UniProt P35354)
T1 construct: purchased
T1 sequence (P35354 18-604): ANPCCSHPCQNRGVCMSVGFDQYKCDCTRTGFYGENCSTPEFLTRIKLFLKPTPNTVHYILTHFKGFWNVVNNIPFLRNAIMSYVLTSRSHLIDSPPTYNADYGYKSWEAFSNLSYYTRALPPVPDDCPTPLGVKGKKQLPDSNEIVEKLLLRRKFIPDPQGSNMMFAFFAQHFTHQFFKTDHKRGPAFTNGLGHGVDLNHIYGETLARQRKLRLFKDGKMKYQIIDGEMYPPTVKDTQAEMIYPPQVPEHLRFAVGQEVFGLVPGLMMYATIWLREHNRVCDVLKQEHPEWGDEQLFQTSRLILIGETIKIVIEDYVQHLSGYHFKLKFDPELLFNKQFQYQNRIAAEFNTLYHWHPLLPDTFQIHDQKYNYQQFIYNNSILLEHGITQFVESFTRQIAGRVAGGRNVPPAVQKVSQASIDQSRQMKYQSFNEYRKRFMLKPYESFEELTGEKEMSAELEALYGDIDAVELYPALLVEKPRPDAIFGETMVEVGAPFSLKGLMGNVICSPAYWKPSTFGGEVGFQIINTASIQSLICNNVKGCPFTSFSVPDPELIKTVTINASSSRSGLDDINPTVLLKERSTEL
Test: COX-2 enzyme assay with oxygen monitoring system (Example 3)
Type: biochemical
Conditions: for Specific Activity: the higher this number the more selective for COX-2 as opposed to COX-1
Description: The present example describes an enzyme assay method using an oxygen monitoring system to monitor the COX inhibitory activity of fruit extracts. In this assay the changes of concentration of dissolved oxygen are constantly monitored by an oxygen electrode in a Dissolved Oxygen Measuring System (Instech, Plymouth Meeting, Pa.). The output is recorded by a linear Recorder (Fisher Scientific, Pittsburgh, Pa.).
Each day a fresh potassium chloride solution (15 g/100 ml distilled water) was made and the electrode was set up according to manufacturers instructions. The chamber is kept at 37° C.
A prostaglandin assay kit was used and the assay set up in a manner similar to that described for the COX-1 assay. Briefly, 50 μl phenol was added to 20 ml 100 mM Tris buffer, warmed to 37° C. for 1 minute (working buffer). To a tube of hematin 0.9 ml of the working buffer was added. 50 μl 0.1NaOH was added to an arachidonic acid vial and vortexed. 0.43 ml water was added and the solution mixed again. Samples of extracts were weighed and dissolved in the working buffer to a final concentration of 0.1 g/ml. Buffer, samples or diluted samples are used in the enzyme assays directly.
The enzyme assay is performed according to the manufacturer's instruction, which should be well known to those of skill in the art. Briefly, 600 μl of working buffer were drawn into the chamber from the overflow outlet with the injection valve close, and the main outlet connected to a syringe in the right orientation. The stir bar was set a speed of 3 k/min. At 1 minute intervals, 5 ul enzyme, 15 ul hematin solution, 6 ul buffer or sample or diluted sample and 8 ul arachidonic acid solution was injected. The oxygen concentration changes were transformed into mV and recorded.

Row | Structure (SMILES) | Specific Activity | Potency compared to Celebrex (COX-2 potency relative to Celebrex) [%]
1 | CC(=O)Oc1ccccc1C(=O)O [Aspirin] | 0.5 | 
2 | O=c1c(O)c(-c2ccc(O)c(O)c2)oc2cc(O)cc(O)c12 [Quercetin standard, Quercetin] | 6.3 | 78
